In patent US12435044B2, “Pyridazinone herbicides and pyridazinone intermediates used to prepare a herbicide” (FMC Corporation, priority 2018, dated 2025):

How the values were obtained:
Type in all cases: in vivo
[1] = system: pigweed, palmer (Amaranthus palmeri); assay: Test E pre-/postemergence greenhouse test
From the text: (§1) Seeds of plant species selected from corn (Zea mays), soybean (Glycine max), velvetleaf (Abutilon theophrasti), lambsquarters (Chenopodium album), poinsettia, wild (Euphorbia heterophylla), pigweed, palmer (Amaranthus palmeri), waterhemp (common waterhemp, Amaranthus rudis), surinam grass (Brachiaria decumbens), crabgrass, large (Digitaria sanguinalis), crabgrass, Brazil (Digitaria horizontalis), panicum, fall (Panicum dichotomiflorum), foxtail, giant (Setaria faberii), foxtail, green (Setaria viridis), goosegrass (Eleusine indica), johnsongrass (Sorghum halepense), ragweed (common ragweed, Ambrosia elatior), barnyardgrass (Echinochloa crus-galli), sandbur (southern sandbur, Cenchrus echinatus), arrowleaf sida (Sida rhombifolia), ryegrass, Italian (Lolium multiflorum), dayflower, VA (Virginia (VA) dayflower, Commelina virginica), field bindweed (Convolvulus arvensis), morningglory (Ipomoea coccinea), horseweed (Conyza canadensis), kochia (Kochia scoparia), nutsedge, yellow (Cyperus esculentus) and hairy beggarticks (Bidenspilosa), were planted into a silt loam soil and treated preemergence with test chemicals formulated in a non-phytotoxic solvent mixture which included a surfactant.
(§2) At the same time, plants selected from these crop and weed species and also waterhemp_RES1, (ALS & Triazine resistant common waterhemp, Amaranthus rudis), and waterhemp_RES2, (ALS & HPPD resistant common waterhemp, Amaranthus rudis) were planted in pots containing Redi-Earth® planting medium (Scotts Company, 14111 Scottslawn Road, Marysville, Ohio 43041) comprising spaghnum peat moss, vermiculite, wetting agent and starter nutrients were treated with postemergence applications of test chemicals formulated in the same manner. Plants ranged in height from 2 to 18 cm for postemergence treatments (1- to 4-leaf stage). Treated plants and controls were maintained in a greenhouse for 14 to 21 d, after which time all species were compared to controls and visually evaluated. Plant response ratings, summarized in Table E, are based on a scale of 0 to 100 where 0 is no effect and 100 is complete control. A dash (-) response means no test result.

[2] = system: waterhemp (common waterhemp, Amaranthus rudis); assay: Test E pre-/postemergence greenhouse test
From the text: as §1, §2

[3] = system: velvetleaf (Abutilon theophrasti); assay: Test E pre-/postemergence greenhouse test
From the text: as §1, §2

[4] = system: horseweed (Conyza canadensis); assay: Test E pre-/postemergence greenhouse test
From the text: as §1, §2

[5] = system: ragweed (common ragweed, Ambrosia elatior); assay: Test E pre-/postemergence greenhouse test
From the text: as §1, §2

soybean (Glycine max) = assay: Test E pre-/postemergence greenhouse test
From the text: as §1, §2

corn (Zea mays) = assay: Test E pre-/postemergence greenhouse test
From the text: as §1, §2

[6] = system: chamomile (scentless chamomile, Matricaria inodora); assay: Test D postemergence controlled growth environment test
From the text: Seeds of plant species selected from blackgrass (Alopecurus myosuroides), galium (catchweed bedstraw, Galium aparine), kochia (Kochia scoparia), oilseed rape (Brassica napus), barley, spring (Hordeum vulgare), wheat, spring (Triticum aestivum), oat, wild (Avena fatua), barley, winter (Hordeum vulgare) and wheat, winter (Triticum aestivum) were planted into a silt loam soil and treated preemergence with test chemicals formulated in a non-phytotoxic solvent mixture which included a surfactant.
At the same time, plants selected from these crop and weed species and also bluegrass (annual bluegrass, Poa annua), canarygrass (littleseed canarygrass, Phalaris minor), chickweed (common chickweed, Stellaria media), bromegrass, downy (downy bromegrass, Bromus tectorum), field poppy (Papaver rhoeas), field violet (Viola arvensis), foxtail, green (Setaria viridis), deadnettle (henbit deadnettle, Lamium amplexicaule), ryegrass, Italian (Lolium multiflorum), lambsquarters (Chenopodium album), pigweed (Amaranthus retroflexus), chamomile (scentless chamomile, Matricaria inodora), Russian thistle (Salsola kali), speedwell (bird's-eye speedwell, Veronica persica), buckwheat, wild (Polygonum convolvulus), mustard, wild (Sinapis arvensis), radish, wild (Raphanus raphanistrum), windgrass (Apera spica-venti), geranium, cutleaf (Geranium dissectum) and Canada thistle (Cirsium arvense) were planted in pots containing Redi-Earth® planting medium (Scotts Company, 14111 Scottslawn Road, Marysville, Ohio 43041) comprising spaghnum peat moss, vermiculite, wetting agent and starter nutrients and treated with postemergence applications of the test chemicals formulated in the same manner. Plants ranged in height from 2 to 18 cm (1- to 4-leaf stage). Treated plants and controls were maintained in a controlled growth environment for 14 to 21 d after which time all species were compared to controls and visually evaluated. Plant response ratings, summarized in Table D, are based on a scale of 0 to 100 where 0 is no effect and 100 is complete control. A dash (-) response means no test result.

Cc1cc(Cl)c2ccccc2c1-c1c(O)c(Cl)nn(C)c1=O [Cpd. No. 65]
Plant response rating, Pigweed, Palmer ([1]; Postemergence, 16 g ai/ha): 35 | Plant response rating, Pigweed, Palmer ([1]; Postemergence, 31 g ai/ha): 43 | Plant response rating, Pigweed, Palmer ([1]; Postemergence, 62 g ai/ha): 68 | Plant response rating, Pigweed, Palmer ([1]; Postemergence, 125 g ai/ha): 55 | Plant response rating, Pigweed, Palmer ([1]; Preemergence, 16 g ai/ha): 40 | Plant response rating, Pigweed, Palmer ([1]; Preemergence, 31 g ai/ha): 58 | Plant response rating, Pigweed, Palmer ([1]; Preemergence, 62 g ai/ha): 80 | Plant response rating, Pigweed, Palmer ([1]; Preemergence, 125 g ai/ha): 90 | Plant response rating, Waterhemp ([2]; Postemergence, 16 g ai/ha): 83 | Plant response rating, Waterhemp ([2]; Postemergence, 31 g ai/ha): 88 | Plant response rating, Waterhemp ([2]; Postemergence, 62 g ai/ha): 99 | Plant response rating, Waterhemp ([2]; Postemergence, 125 g ai/ha): 97 | Plant response rating, Waterhemp ([2]; Preemergence, 16 g ai/ha): 75 | Plant response rating, Waterhemp ([2]; Preemergence, 31 g ai/ha): 90 | Plant response rating, Waterhemp ([2]; Preemergence, 62 g ai/ha): 99 | Plant response rating, Waterhemp ([2]; Preemergence, 125 g ai/ha): 99 | Plant response rating, Velvetleaf ([3]; Postemergence, 16 g ai/ha): 75 | Plant response rating, Velvetleaf ([3]; Postemergence, 31 g ai/ha): 90 | Plant response rating, Velvetleaf ([3]; Postemergence, 62 g ai/ha): 85 | Plant response rating, Velvetleaf ([3]; Postemergence, 125 g ai/ha): 90 | Plant response rating, Velvetleaf ([3]; Preemergence, 16 g ai/ha): 75 | Plant response rating, Velvetleaf ([3]; Preemergence, 31 g ai/ha): 100 | Plant response rating, Velvetleaf ([3]; Preemergence, 62 g ai/ha): 100 | Plant response rating, Velvetleaf ([3]; Preemergence, 125 g ai/ha): 100 | Plant response rating, Horseweed ([4]; Postemergence, 16 g ai/ha): 65 | Plant response rating, Horseweed ([4]; Postemergence, 31 g ai/ha): 75 | Plant response rating, Horseweed ([4]; Postemergence, 62 g ai/ha): 85 | Plant response rating, Horseweed ([4]; Postemergence, 125 g ai/ha): 85 | Plant response rating, Horseweed ([4]; Preemergence, 16 g ai/ha): 100 | Plant response rating, Horseweed ([4]; Preemergence, 31 g ai/ha): 100 | Plant response rating, Horseweed ([4]; Preemergence, 62 g ai/ha): 100 | Plant response rating, Horseweed ([4]; Preemergence, 125 g ai/ha): 100 | Plant response rating, Ragweed ([5]; Postemergence, 16 g ai/ha): 95 | Plant response rating, Ragweed ([5]; Postemergence, 31 g ai/ha): 93 | Plant response rating, Ragweed ([5]; Postemergence, 62 g ai/ha): 95 | Plant response rating, Ragweed ([5]; Postemergence, 125 g ai/ha): 93 | Plant response rating, Ragweed ([5]; Preemergence, 16 g ai/ha): 75 | Plant response rating, Ragweed ([5]; Preemergence, 31 g ai/ha): 99 | Plant response rating, Ragweed ([5]; Preemergence, 62 g ai/ha): 100 | Plant response rating, Ragweed ([5]; Preemergence, 125 g ai/ha): 100 | Plant response rating, Soybean (soybean (Glycine max); Postemergence, 16 g ai/ha): 70 | Plant response rating, Soybean (soybean (Glycine max); Postemergence, 31 g ai/ha): 80 | Plant response rating, Soybean (soybean (Glycine max); Postemergence, 62 g ai/ha): 90 | Plant response rating, Soybean (soybean (Glycine max); Postemergence, 125 g ai/ha): 93 | Plant response rating, Soybean (soybean (Glycine max); Preemergence, 16 g ai/ha): 23 | Plant response rating, Soybean (soybean (Glycine max); Preemergence, 31 g ai/ha): 13 | Plant response rating, Soybean (soybean (Glycine max); Preemergence, 62 g ai/ha): 15 | Plant response rating, Soybean (soybean (Glycine max); Preemergence, 125 g ai/ha): 43 | Plant response rating, Corn (corn (Zea mays); Postemergence, 16 g ai/ha): 0 | Plant response rating, Corn (corn (Zea mays); Postemergence, 31 g ai/ha): 20 | Plant response rating, Corn (corn (Zea mays); Postemergence, 62 g ai/ha): 23 | Plant response rating, Corn (corn (Zea mays); Postemergence, 125 g ai/ha): 35 | Plant response rating, Corn (corn (Zea mays); Preemergence, 16 g ai/ha): 0 | Plant response rating, Corn (corn (Zea mays); Preemergence, 31 g ai/ha): 5 | Plant response rating, Corn (corn (Zea mays); Preemergence, 62 g ai/ha): 20 | Plant response rating, Corn (corn (Zea mays); Preemergence, 125 g ai/ha): 43 | Plant response rating, Chamomile ([6]; 16 g ai/ha): 99 | Plant response rating, Chamomile ([6]; 31 g ai/ha): 100 | Plant response rating, Chamomile ([6]; 62 g ai/ha): 100 | Plant response rating, Chamomile ([6]; 125 g ai/ha): 100

Cc1ccc2ccc(C)c(-c3c(O)c(Cl)nn(C)c3=O)c2c1 [Cpd. No. 20, 6-chloro-4-(2,7-dimethyl-1-naphthalenyl)-5-hydroxy-2-methyl-3(2H)-pyridazinone]
Plant response rating, Pigweed, Palmer ([1]; Postemergence, 16 g ai/ha): 60 | Plant response rating, Pigweed, Palmer ([1]; Postemergence, 31 g ai/ha): 65 | Plant response rating, Pigweed, Palmer ([1]; Postemergence, 62 g ai/ha): 70 | Plant response rating, Pigweed, Palmer ([1]; Postemergence, 125 g ai/ha): 60 | Plant response rating, Pigweed, Palmer ([1]; Preemergence, 16 g ai/ha): 20 | Plant response rating, Pigweed, Palmer ([1]; Preemergence, 31 g ai/ha): 35 | Plant response rating, Pigweed, Palmer ([1]; Preemergence, 62 g ai/ha): 95 | Plant response rating, Pigweed, Palmer ([1]; Preemergence, 125 g ai/ha): 98 | Plant response rating, Waterhemp ([2]; Postemergence, 16 g ai/ha): 75 | Plant response rating, Waterhemp ([2]; Postemergence, 31 g ai/ha): 75 | Plant response rating, Waterhemp ([2]; Postemergence, 62 g ai/ha): 95 | Plant response rating, Waterhemp ([2]; Postemergence, 125 g ai/ha): 90 | Plant response rating, Waterhemp ([2]; Preemergence, 16 g ai/ha): 60 | Plant response rating, Waterhemp ([2]; Preemergence, 31 g ai/ha): 70 | Plant response rating, Waterhemp ([2]; Preemergence, 62 g ai/ha): 98 | Plant response rating, Waterhemp ([2]; Preemergence, 125 g ai/ha): 100 | Plant response rating, Velvetleaf ([3]; Preemergence, 16 g ai/ha): 50 | Plant response rating, Velvetleaf ([3]; Preemergence, 31 g ai/ha): 80 | Plant response rating, Velvetleaf ([3]; Preemergence, 62 g ai/ha): 90 | Plant response rating, Velvetleaf ([3]; Preemergence, 125 g ai/ha): 100 | Plant response rating, Horseweed ([4]; Postemergence, 16 g ai/ha): 80 | Plant response rating, Horseweed ([4]; Postemergence, 31 g ai/ha): 75 | Plant response rating, Horseweed ([4]; Postemergence, 62 g ai/ha): 85 | Plant response rating, Horseweed ([4]; Postemergence, 125 g ai/ha): 80 | Plant response rating, Ragweed ([5]; Postemergence, 16 g ai/ha): 90 | Plant response rating, Ragweed ([5]; Postemergence, 31 g ai/ha): 85 | Plant response rating, Ragweed ([5]; Postemergence, 62 g ai/ha): 95 | Plant response rating, Ragweed ([5]; Postemergence, 125 g ai/ha): 95 | Plant response rating, Ragweed ([5]; Preemergence, 16 g ai/ha): 60 | Plant response rating, Ragweed ([5]; Preemergence, 31 g ai/ha): 95 | Plant response rating, Ragweed ([5]; Preemergence, 62 g ai/ha): 95 | Plant response rating, Ragweed ([5]; Preemergence, 125 g ai/ha): 98 | Plant response rating, Soybean (soybean (Glycine max); Postemergence, 16 g ai/ha): 10 | Plant response rating, Soybean (soybean (Glycine max); Postemergence, 31 g ai/ha): 15 | Plant response rating, Soybean (soybean (Glycine max); Postemergence, 62 g ai/ha): 30 | Plant response rating, Soybean (soybean (Glycine max); Postemergence, 125 g ai/ha): 40 | Plant response rating, Soybean (soybean (Glycine max); Preemergence, 16 g ai/ha): 0 | Plant response rating, Soybean (soybean (Glycine max); Preemergence, 62 g ai/ha): 15 | Plant response rating, Soybean (soybean (Glycine max); Preemergence, 125 g ai/ha): 0 | Plant response rating, Corn (corn (Zea mays); Postemergence, 16 g ai/ha): 5 | Plant response rating, Corn (corn (Zea mays); Postemergence, 31 g ai/ha): 20 | Plant response rating, Corn (corn (Zea mays); Postemergence, 62 g ai/ha): 10 | Plant response rating, Corn (corn (Zea mays); Postemergence, 125 g ai/ha): 10 | Plant response rating, Corn (corn (Zea mays); Preemergence, 16 g ai/ha): 0 | Plant response rating, Corn (corn (Zea mays); Preemergence, 31 g ai/ha): 0 | Plant response rating, Corn (corn (Zea mays); Preemergence, 62 g ai/ha): 0 | Plant response rating, Corn (corn (Zea mays); Preemergence, 125 g ai/ha): 0 | Plant response rating, Chamomile ([6]; 16 g ai/ha): 95 | Plant response rating, Chamomile ([6]; 31 g ai/ha): 98 | Plant response rating, Chamomile ([6]; 62 g ai/ha): 100 | Plant response rating, Chamomile ([6]; 125 g ai/ha): 100
